Measurements taken from BindingDB's records for doi:10.7270/Q2H130G1 (Burnham Center For Chemical Genomics, 2010).

These compounds were tested against T1, Alkaline phosphatase, tissue-nonspecific isozyme (Homo sapiens, UniProt P05186) (assay: TNAP enzyme inhibition by screening hits, dose response, selectivity assay for mouse IAP inhibitor project, biochemical, human TNAP, uHTS hits (AID 488906)).
T1 sequence (P05186 whole entry): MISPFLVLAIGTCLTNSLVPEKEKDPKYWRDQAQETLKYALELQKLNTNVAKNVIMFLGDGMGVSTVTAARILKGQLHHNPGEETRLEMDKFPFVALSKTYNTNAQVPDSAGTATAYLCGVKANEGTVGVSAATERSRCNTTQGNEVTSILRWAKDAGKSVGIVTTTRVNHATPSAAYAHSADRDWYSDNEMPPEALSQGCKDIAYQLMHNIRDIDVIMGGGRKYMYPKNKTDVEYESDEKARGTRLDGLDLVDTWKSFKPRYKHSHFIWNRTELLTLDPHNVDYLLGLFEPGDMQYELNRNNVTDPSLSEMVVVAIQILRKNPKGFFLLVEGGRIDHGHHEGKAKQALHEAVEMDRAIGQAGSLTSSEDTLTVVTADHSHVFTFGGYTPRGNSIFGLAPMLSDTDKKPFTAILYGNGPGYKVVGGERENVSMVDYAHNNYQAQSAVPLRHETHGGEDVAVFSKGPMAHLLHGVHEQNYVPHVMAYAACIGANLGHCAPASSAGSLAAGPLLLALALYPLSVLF

Compound | IC50
Cc1ccc(Cl)c2c1NC(=O)/C2=C1/NC(=S)NC1=O | 0.211 µM
Nc1nnc(CC(=O)N/N=C/C2C=C([N+](=O)[O-])C=C(Br)C2=O)s1 (stereo not given) [2-(5-azanyl-1,3,4-thiadiazol-2-yl)-N'-[(E)-(5-bromanyl-3-nitro-6-oxidanylidene-cyclohexa-2,4-dien-1-ylidene)methyl]ethanehydrazide] | 20.6 µM
NS(=O)(=O)c1cc(C(=O)NNC2=c3ccccc3=NC2=O)ccc1Cl [2-chloro-5-[[(2-oxoindol-3-yl)amino]carbamoyl]benzenesulfonamide] | > 100 µM
COc1cc(C=Nn2c(O)csc2=S)ccc1O [3-[[(E)-(3-methoxy-4-oxidanylidene-cyclohexa-2,5-dien-1-ylidene)methyl]amino]-2-sulfanylidene-1,3-thiazolidin-4-one] | > 100 µM
Oc1ccc(C=Nn2c(O)csc2=S)c(O)c1O [3-[[(E)-[2,3-bis(oxidanyl)-4-oxidanylidene-cyclohexa-2,5-dien-1-ylidene]methyl]amino]-2-sulfanylidene-1,3-thiazolidin-4-one] | 58.5 µM
CC1NON=C1C(=O)NN=CC1=CC(=O)C(=O)C=C1 (stereo not given) [4-Methyl-furazan-3-carboxylic acid (3,4-dihydroxy-benzylidene)-hydrazide] | 16.8 µM
Oc1ccc(CN=Nc2cc(N3CCCC3)nc(N3CCCC3)n2)cc1O [(4Z)-4-[[2-(2,6-dipyrrolidin-1-ylpyrimidin-4-yl)hydrazinyl]methylidene]-2-hydroxycyclohexa-2,5-dien-1-one] | > 100 µM
Cc1ccc(/C=C2\SC(=S)N(/N=C/C3C=C([N+](=O)[O-])C=CC3=O)C2=O)o1 (stereo not given) [(5Z)-5-[(5-methylfuran-2-yl)methylidene]-3-[[(E)-(3-nitro-6-oxocyclohexa-2,4-dien-1-ylidene)methyl]amino]-2-sulfanylidene-1,3-thiazolidin-4-one] | > 100 µM
C#CCOCCOCCOCCNc1nc(N2CCN(C(=O)CCCCCCCCCCNC(=O)[C@H]([C@@H](C)CC)n3cc(CCCCN=C(N)N)nn3)CC2)nc(N2CCN(C(=O)CCCCCCCCCCNC(=O)[C@@H]([C@H](C)O)n3cc(C)nn3)CC2)n1 [GT-RI] | 1.04 µM
C#CCOCCOCCOCCNc1nc(N2CCN(C(=O)CCCCCCCCCCNC(=O)Cn3cc(CCCCCN)nn3)CC2)nc(N2CCN(C(=O)CCCCCCCCCCNC(=O)Cn3cc(C[C@@H](C)O)nn3)CC2)n1 [KG-TG] | > 100 µM
O=C1C=CC(C=NNC(=S)Nc2ccccc2[N+](=O)[O-])C=C1O (stereo not given) [MLS000417596] | 1.53 µM
C#CCOCCOCCOCCNc1nc(N2CCN(C(=O)CCCCCCCCCCNC(=O)[C@@H](CCSC)n3cc(CCO)nn3)CC2)nc(N2CCN(C(=O)CCCCCCCCCCNC(=O)[C@H]([C@@H](C)CC)n3cc(CCCCCN)nn3)CC2)n1 [MLS002153719] | > 100 µM
O=C(Nn1c(O)csc1=S)C(=O)Nn1c(O)csc1=S [SMR000349781] | > 100 µM
O=C1C=CC(/C=C/c2nc(O)c([N+](=O)[O-])c(=O)[nH]2)C=C1O (stereo not given) [SMR000524347] | 1.12 µM
COc1cc(C=CC(=O)CC(=O)C=Cc2ccc(O)cc2)ccc1O [demethoxycurcumin] | > 100 µM
